Biological target: T1, IDE (Homo sapiens, UniProt P14735)
T1 construct: purchased R&D Systems (Minneapolis, MN)
T1 sequence (P14735 1-1019): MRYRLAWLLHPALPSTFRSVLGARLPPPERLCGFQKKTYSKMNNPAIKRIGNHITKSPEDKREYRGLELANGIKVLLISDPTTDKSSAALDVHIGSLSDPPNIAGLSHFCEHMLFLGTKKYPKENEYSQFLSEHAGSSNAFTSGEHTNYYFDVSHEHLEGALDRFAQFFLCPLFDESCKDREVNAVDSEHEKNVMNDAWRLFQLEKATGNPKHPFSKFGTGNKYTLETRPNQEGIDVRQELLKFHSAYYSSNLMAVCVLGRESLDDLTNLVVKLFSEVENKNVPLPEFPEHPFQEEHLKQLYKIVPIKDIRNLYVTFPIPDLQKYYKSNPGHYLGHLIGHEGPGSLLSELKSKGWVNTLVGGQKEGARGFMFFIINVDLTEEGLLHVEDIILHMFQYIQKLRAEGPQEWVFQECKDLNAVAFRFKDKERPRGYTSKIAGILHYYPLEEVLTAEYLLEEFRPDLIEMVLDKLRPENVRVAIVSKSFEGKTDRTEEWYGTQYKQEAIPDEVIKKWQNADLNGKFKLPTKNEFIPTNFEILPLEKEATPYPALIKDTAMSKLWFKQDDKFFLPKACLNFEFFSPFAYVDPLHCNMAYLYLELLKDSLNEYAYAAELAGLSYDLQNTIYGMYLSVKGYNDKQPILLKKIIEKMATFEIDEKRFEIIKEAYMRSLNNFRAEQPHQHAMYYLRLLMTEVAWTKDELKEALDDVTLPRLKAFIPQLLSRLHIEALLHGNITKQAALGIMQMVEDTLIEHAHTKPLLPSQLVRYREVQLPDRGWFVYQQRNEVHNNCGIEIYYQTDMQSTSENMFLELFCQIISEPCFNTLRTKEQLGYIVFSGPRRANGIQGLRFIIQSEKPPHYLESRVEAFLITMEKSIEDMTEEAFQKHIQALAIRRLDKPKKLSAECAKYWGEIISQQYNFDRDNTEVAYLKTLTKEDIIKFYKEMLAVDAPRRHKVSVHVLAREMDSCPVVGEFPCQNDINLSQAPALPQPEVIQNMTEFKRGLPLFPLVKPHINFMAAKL
Assay: Purified peptidase assay, IDE
Type: biochemical
Conditions: recombinant purified human enzyme; for prodrugs the active form was tested
Description: Purified recombinant human enzymes were purchased from R&D Systems (Minneapolis, MN). […] Each substrate was diluted to 100 μM in the assay buffer recommended for each enzyme by the supplier. […] To these, 5 μl of diluted enzyme was added, followed by 10 μl of the quenched peptide substrate. The plates were incubated at 37°C until at least 10% substrate turnover or 5 μM product had formed. Fluorescence was measured using a Tecan Safire II (Excitation 320 nm/Emission 420 nm). Each plate included a standard curve of reaction product and positive (no enzyme) and negative (dimethyl sulfoxide vehicle) controls. Dose-response data were plotted and inhibition values (IC50) determined by linear regression analysis using GraphPad Prism (GraphPad Software, La Jolla, CA).

SMILES: Cc1nc2ccc(CCCNC(=O)C3(C[C@@H](C)C(=O)O)CCCC3)cc2s1 [UK-505,749, (R)-2-methyl-3-(1-((3-(2-methylbenzo[d]thiazol-6-yl)propyl)carbamoyl)cyclopentyl)propanoic acid]
- IC50: > 100 µM
